Common to all, as to test: Antibacterial activity (MIC), agar dilution
What all share (type): cell-based
In general terms: Agar dilution tests growth on a series of plates holding different concentrations.

For one test, the system named is Ps. aeruginosa GN3379*. The following applies: Ps. aeruginosa GN3379, penicillinase-producing, 10^6 cells per ml. The text has this:
(§1) The amount of bacteria inoculated was 10^4 cells per plate (10^6 cells per ml).
(§2) * Penicillinase-producing bacteria

The next test deals with St. aureus F-137*. The settings on record: St. aureus F-137, penicillinase-producing, 10^6 cells per ml.
From the text: as §1, §2

A further test relates to Kl. pneumoniae Y-4*. The following applies: Kl. pneumoniae Y-4, penicillinase-producing, 10^6 cells per ml.
From the text: as §1, §2

The next test relates to E. coli TK-3*. The following applies: E. coli TK-3, penicillinase-producing, 10^6 cells per ml.
From the text: as §1, §2

A further test has as its system Ps. aeruginosa S-68. The settings on record: Ps. aeruginosa S-68, 10^6 cells per ml, 37° C., 20 hours.
From the text: as §1

In another test the test system is Kl. pneumoniae Y-41. The following applies: 37° C., 20 hours.
From the text: as §1

A further test relates to Pro. mirabilis T-111. The settings on record: 37° C.
From the text: as §1

The next test concerns E. coli NIHJ JC-2. The settings on record: E. coli NIHJ JC-2, 10^6 cells per ml, 37° C., 20 hours.
From the text: as §1

For the next test, the system named is E. coli TK-111. The following applies: E. coli TK-111, 10^6 cells per ml, 37° C., 20 hours.
From the text: as §1

A further test relates to St. aureus FDA209P. The settings on record: St. aureus FDA209P, 10^6 cells per ml, 37° C., 20 hours.
From the text: as §1

In another test the test system is Ent. cloacae IID977. The following applies: Ent. cloacae IID977, 10^6 cells per ml, 37° C., 20 hours.
From the text: as §1

The next test relates to Kl. pneumoniae Y-50. The following applies: 10^6 cells per ml, 37° C.
From the text: as §1

The test system of another test is Pro. vulgaris GN3027. The settings on record: Pro. vulgaris GN3027, 10^6 cells per ml, 37° C., 20 hours.
From the text: as §1

Another test relates to Ps. aeruginosa IFO3445. The following applies: Ps. aeruginosa IFO3445, 10^6 cells per ml, 37° C., 20 hours.
From the text: as §1

The test system of another test is Aci. antitratus A-6. The settings on record: Aci. antitratus A-6, 10^6 cells per ml, 37° C., 20 hours.
From the text: as §1

The test system of a further test is Pro. morganii T-216. The settings on record: 37° C.
From the text: as §1

The next test concerns Ps. aeruginosa GN918**. The following applies: Pseudomonas aeruginosa, Ps. aeruginosa GN918, cephalospolinase-producing, 10^6 cells per ml.
From the text: as §1
(§3) ** Cephalospolinase-producing bacteria

The next test deals with E. coli GN5482**. The following applies: E. coli GN5482, cephalospolinase-producing, 10^6 cells per ml.
From the text: as §1, §3

A further test concerns Pro. vulgaris GN76**. The following applies: Pro. vulgaris GN76, cephalospolinase-producing, 10^6 cells per ml.
From the text: as §1, §3

The mark [1] stands for this setting: Morganella morganii, T216, 10^6 cells per ml, 20 hours, read-out: MIC.
Where [2] appears, read: Pseudomonas aeruginosa, 20 h, read-out: MIC.
The mark [3] stands for this setting: Staphylococcus aureus, 20 h, read-out: MIC.
The mark [4] stands for this setting: Klebsiella pneumoniae, 20 h, read-out: MIC.
[5] abbreviates: Escherichia coli, 20 h, read-out: MIC.
[6] abbreviates: Pseudomonas aeruginosa, S68, read-out: MIC.
Setting [7] is: Klebsiella pneumoniae, Y41, 10^6 cells per ml, read-out: MIC.
The mark [8] stands for this setting: Escherichia coli, NIHJJC2, 20 h, read-out: MIC.
Where [9] appears, read: Escherichia coli, TK111, 20 h, read-out: MIC.
Where [10] appears, read: Staphylococcus aureus, FDA209P, 20 h, read-out: MIC.
[11] abbreviates: Enterobacter cloacae, IID977, 20 h, read-out: MIC.
[12] abbreviates: Klebsiella pneumoniae, Y50, 20 h.
[13] abbreviates: Proteus vulgaris, GN3027, 20 h, read-out: MIC.
Where [14] appears, read: Pseudomonas aeruginosa, read-out: MIC.
Where [15] appears, read: Proteus vulgaris, 20 h, read-out: MIC.

Converted amounts (≈) assume the structure as drawn. Read-outs that look alike come from different tables or passages of the source.

Among the data in patent publication US4698352A, “4-oxo-1,4-dihydronicotinic acid derivatives, salts thereof, and antibacterial agents containing the same” (Toyama Chemical Co., Ltd., priority 1982, dated 1987) are MIC values, retold here.

The MIC is the smallest concentration in the dilution series that meets the test's criterion for growth inhibition. Consider `CC(=O)Oc1ccc(-n2cc(C(=O)OCCN(C)C)c(=O)cc2-c2ccc(N(C)C)cc2)cc1` [drawing 38], for which the MIC worked out at 12.5 µg/mL (≈ 27 µM) against Ps. aeruginosa GN3379*; 0.39 µg/mL (≈ 0.841 µM) against St. aureus F-137*; 6.25 µg/mL (≈ 13.5 µM) with Kl. pneumoniae Y-4*; 1.56 µg/mL (≈ 3.37 µM) against E. coli TK-3*; 6.25 µg/mL (≈ 13.5 µM) against Ps. aeruginosa S-68; 3.13 µg/mL (≈ 6.75 µM) against Kl. pneumoniae Y-41 (10^6 cells per ml). The MIC against Pro. mirabilis T-111 (10^6 cells per ml, 20 hours) is 6.25 µg/mL (≈ 13.5 µM); in the test on E. coli NIHJ JC-2, 0.39 µg/mL (≈ 0.841 µM); in the test with E. coli TK-111, 0.2 µg/mL (≈ 0.431 µM); in the test with St. aureus FDA209P it was 0.39 µg/mL (≈ 0.841 µM); against Ent. cloacae IID977 it was 1.56 µg/mL (≈ 3.37 µM); in the test on Kl. pneumoniae Y-50 (20 hours), 0.78 µg/mL (≈ 1.68 µM). Also, the MIC against Pro. vulgaris GN3027 was 0.39 µg/mL (≈ 0.841 µM); against Ps. aeruginosa IFO3445, 12.5 µg/mL (≈ 27 µM); against Aci. antitratus A-6, 0.39 µg/mL (≈ 0.841 µM); with Pro. morganii T-216 (10^6 cells per ml, 20 hours), 3.13 µg/mL (≈ 6.75 µM); against Ps. aeruginosa GN918** (GN918, 20 h), 3.13 µg/mL (≈ 6.75 µM); in the test with E. coli GN5482** it was at most 0.05 µg/mL. The MIC with Pro. vulgaris GN76** stood at 1.56 µg/mL (≈ 3.37 µM).
For `CC(=O)Oc1ccc(-n2cc(C(=O)OCCN(C)C)c(=O)cc2-c2ccc(N(C)C)cc2)cc1` [drawing 67], the MIC against Ps. aeruginosa GN3379* (Pseudomonas aeruginosa, GN3379, 20 h) came out at 6.25 µg/mL (≈ 13.5 µM); with St. aureus F-137*, 0.2 µg/mL (≈ 0.431 µM); against Kl. pneumoniae Y-4* it was 3.13 µg/mL (≈ 6.75 µM); in the test with E. coli TK-3*, 0.78 µg/mL (≈ 1.68 µM); with Ps. aeruginosa S-68 it was 6.25 µg/mL (≈ 13.5 µM); against Kl. pneumoniae Y-41 (10^6 cells per ml), 3.13 µg/mL (≈ 6.75 µM). For the same compound, the minimal inhibitory concentration (MIC) is 3.13 µg/mL (≈ 6.75 µM) against Pro. mirabilis T-111 (10^6 cells per ml, 20 hours); 0.2 µg/mL (≈ 0.431 µM) against E. coli NIHJ JC-2; 0.1 µg/mL (≈ 0.216 µM) against E. coli TK-111; 0.2 µg/mL (≈ 0.431 µM) in the test on St. aureus FDA209P; 0.78 µg/mL (≈ 1.68 µM) in the test on Ent. cloacae IID977; 0.39 µg/mL (≈ 0.841 µM) with Kl. pneumoniae Y-50 (20 hours). The MIC was 0.2 µg/mL (≈ 0.431 µM) in the test on Pro. vulgaris GN3027; 12.5 µg/mL (≈ 27 µM) in the test on Ps. aeruginosa IFO3445; 0.2 µg/mL (≈ 0.431 µM) in the test on Aci. antitratus A-6; 1.56 µg/mL (≈ 3.37 µM) with Pro. morganii T-216 (setting [1]); 1.56 µg/mL (≈ 3.37 µM) in the test on Ps. aeruginosa GN918** (20 h, read-out: MIC); at most 0.05 µg/mL against E. coli GN5482**. This compound showed a minimum inhibitory concentration (MIC) with Pro. vulgaris GN76** of 1.56 µg/mL (≈ 3.37 µM).
In the case of `O=C(O)c1cn(-c2ccc(F)cc2)c(C=Cc2cccnc2)cc1=O` [drawing 205], the MIC was determined as 25 µg/mL (≈ 74.3 µM) in the test with Ps. aeruginosa GN3379* (setting [2]); 3.13 µg/mL (≈ 9.31 µM) in the test with St. aureus F-137* (setting [3]); 6.25 µg/mL (≈ 18.6 µM) in the test with Kl. pneumoniae Y-4* (setting [4]); 3.13 µg/mL (≈ 9.31 µM) in the test with E. coli TK-3* (setting [5]); 12.5 µg/mL (≈ 37.2 µM) in the test on Ps. aeruginosa S-68 (setting [6]); 6.25 µg/mL (≈ 18.6 µM) in the test on Kl. pneumoniae Y-41 (setting [7]). For the same compound, the MIC with Pro. mirabilis T-111 (Proteus mirabilis, T111, 10^6 cells per ml, 20 hours, read-out: MIC) turned out to be 12.5 µg/mL (≈ 37.2 µM); in the test on E. coli NIHJ JC-2 (setting [8]), 1.56 µg/mL (≈ 4.64 µM); in the test on E. coli TK-111 (setting [9]), 0.78 µg/mL (≈ 2.32 µM); with St. aureus FDA209P (setting [10]), 3.13 µg/mL (≈ 9.31 µM); with Ent. cloacae IID977 (setting [11]), 3.13 µg/mL (≈ 9.31 µM); against Kl. pneumoniae Y-50 (setting [12]), 0.78 µg/mL (≈ 2.32 µM). The MIC in the test on Pro. vulgaris GN3027 (setting [13]) worked out at 0.39 µg/mL (≈ 1.16 µM); in the test on Ps. aeruginosa IFO3445 (setting [14]), 25 µg/mL (≈ 74.3 µM); with Aci. antitratus A-6 (20 h, read-out: MIC), 3.13 µg/mL (≈ 9.31 µM); against Pro. morganii T-216 (Morganella morganii, T216, 20 h, 10^6 cells per ml), 6.25 µg/mL (≈ 18.6 µM); with Ps. aeruginosa GN918** (20 h, read-out: MIC), 12.5 µg/mL (≈ 37.2 µM); in the test on E. coli GN5482** (setting [5]), 0.2 µg/mL (≈ 0.595 µM). Besides, the MIC in the test on Pro. vulgaris GN76** (setting [15]) is 1.56 µg/mL (≈ 4.64 µM).
`CN(C)c1ccc(-c2cc(=O)c(C(=O)O)cn2-c2ccc(O)cc2)cc1` [drawing 206]: the MIC was found to be 3.13 µg/mL (≈ 8.93 µM) in the test with Ps. aeruginosa GN3379* (setting [2]); 0.1 µg/mL (≈ 0.285 µM) in the test on St. aureus F-137* (setting [3]); 1.56 µg/mL (≈ 4.45 µM) in the test with Kl. pneumoniae Y-4* (setting [4]); 0.39 µg/mL (≈ 1.11 µM) in the test on E. coli TK-3* (setting [5]); 3.13 µg/mL (≈ 8.93 µM) with Ps. aeruginosa S-68 (setting [6]); 0.78 µg/mL (≈ 2.23 µM) with Kl. pneumoniae Y-41 (setting [7]). The MIC in the test with Pro. mirabilis T-111 (Proteus mirabilis, T111, 20 h, 10^6 cells per ml) was determined as 1.56 µg/mL (≈ 4.45 µM); in the test on E. coli NIHJ JC-2 (setting [8]), 0.2 µg/mL (≈ 0.571 µM); in the test with E. coli TK-111 (setting [9]) it was 0.05 µg/mL (≈ 0.143 µM); in the test on St. aureus FDA209P (setting [10]), 0.2 µg/mL (≈ 0.571 µM); in the test on Ent. cloacae IID977 (setting [11]), 0.39 µg/mL (≈ 1.11 µM); in the test with Kl. pneumoniae Y-50 (setting [12]) it was 0.2 µg/mL (≈ 0.571 µM). Also, the MIC was found to be 0.1 µg/mL (≈ 0.285 µM) in the test on Pro. vulgaris GN3027 (setting [13]); 3.13 µg/mL (≈ 8.93 µM) with Ps. aeruginosa IFO3445 (setting [14]); 0.39 µg/mL (≈ 1.11 µM) in the test with Aci. antitratus A-6 (20 h, read-out: MIC); 0.78 µg/mL (≈ 2.23 µM) with Pro. morganii T-216 (setting [1]); 1.5 µg/mL (≈ 4.28 µM) in the test on Ps. aeruginosa GN918** (20 h, read-out: MIC); 0.05 µg/mL (≈ 0.143 µM) with E. coli GN5482** (setting [5]). Moreover, in the test with Pro. vulgaris GN76** (setting [15]), the MIC came to 0.39 µg/mL (≈ 1.11 µM).
